Earlier results in publication PMC6099957, “Mouse β-Defensin 3, A Defensin Inhibitor of Both Its Endogenous and Exogenous Potassium Channels” (Molecules : A Journal of Synthetic Chemistry and Natural …, 2018).
No end group written: not given here.

Test system: Kv1.3
Conditions: read-out: IC50 as Kv1.3 inhibitor; cited from earlier work
From the text: Here, the Kv1.3 channel-sensitive hBD2 was used as the molecular template to search potential mouse β-defensin from the biological databases. […] Besides the sequence similarity, the distribution of six cysteine amino acid residues was also identical. In order to better understand the structural feature of mBD3, its structure was modeled by the tem ...

hBD1: human β-defensin, Kv1.3 channel blocker binding the pore region (DHYNCVSSGGQCLYSACPIFTKIQGTCYRGKAKCCK; ends and bridges not checked; cysteine pairing not given here; UniProt P60022 33-68, looked up)
IC50: 11.8 µM
